In one experiment the test system is pain reactions caused by phenylbenzoquinone. The experiment can be described thus: Siegmund test with phenylbenzoquinone (analgesic activity after oral administration). In kind it is in vivo, male mice, CD1 strain (Charles River). As to conditions: Mus musculus, po, read-out: AD50 confidence limits.
Method: This method makes it possible to assess the analgesic activity of molecules having both a peripheral and a central action.
Male mice of the CD1 strain (Charles River) and OF1 strain (Iffa Credo), weighing from 19 to 22 g, were used for the Siegmund test and the Eddy test respectively. The tests were carried out at an ambient temperature of 21°±2° C.
The products were suspended in an aqueous mixture of 1% gum arabic, 0.1% sodium chloride and 0.001% Tween 80.
One hour after administration of the product studied, 0.20 to 0.22 ml of a 0.02% aqueous-alcoholic solution of phenylbenzoquinone is administered to the mice intraperitoneally.
The number of pain reactions (twists and stretches) is counted from the 5th to the 10th minute.
The products of the examples studied were administered to groups of 6 to 12 mice by gastric intubation (0.5 ml/20 g), one hour before phenylbenzoquinone, according to the following dosage schedule:
The percentage inhibition of pain manifestations was calculated from the mean numbers of twists per group.
The 50% active doses and their confidence limits were determined from the linear regression carried out on the parameters measured.
Consider `Clc1ccc(C2=CCN(CCSc3nnc4ccccn34)CC2)cc1` [Example 48, 3-[2-(4-(4-Chlorophenyl)-1,2,3,6-tetrahydropyridin-1-yl)ethylmercapto]-1,2,4-triazolo(4,3-a)pyridine], for which the ED50 is 16.1 mg/kg.
Regarding `Cl.Cl.Fc1ccc(N2CCNCC2)c(F)c1` [Example 1, 4-(2,4-Difluorophenyl)piperazine dihydrochloride], the ED50 is 2.16 mg/kg.
For `Fc1ccc(C2=CCN(CCSc3nnc4ccccn34)CC2)cc1` [Example 45, 3-[2-(4-(4-Fluorophenyl)-1,2,3,6-tetrahydropyridin-1-yl)ethylmercapto]-1,2,4-triazolo(4,3-a)pyridine], the ED50 was 33 mg/kg.

The same experiment, now with this note: Mus musculus; 50% active dose with confidence limits; oral (gastric intubation), 1 hour before phenylbenzoquinone i.p.; twists and stretches counted 5th to 10th minute; mice; read-out: AD50 confidence limits.
As for `Fc1ccc(N2CCN(CCCSc3nnc4c(C(F)(F)F)cccn34)CC2)c(F)c1` [Example 32, 3-[3-(4-(2,4-Difluorophenyl)piperazin-1-yl)propylmercapto]-8-trifluoromethyl-1,2,4-triazolo(4,3-a)pyridine], the ED50 turned out to be 12.6 mg/kg.
In the case of `Clc1cccc(N2CCN(CCSc3nnc4ccccn34)CC2)c1` [Example 49, 3-[2-(4-(3-Chlorophenyl)piperazin-1-yl)ethylmercapto]-1,2,4-triazolo(4,3-a)pyridine], the ED50 was found to be 2.45 mg/kg.
For the compound `Cc1cc2ccccc2n2c(SCCCN3CCN(c4cccc(C(F)(F)F)c4)CC3)nnc12` [Example 59, 1-[3-(4-(3-Trifluoromethylphenyl)piperazin-1-yl)propylmercapto]-4-methyl-s-triazolo(4,3-a)quinoline], the ED50 came out at 14.1 mg/kg.
On the same count and under the same terms, then `FC(F)(F)c1cccc(N2CCN(CCSc3nnc4c(C(F)(F)F)cccn34)CC2)c1.O=C(O)/C=C\C(=O)O` [Example 24, 3-[2-(4-(3-Trifluoromethylphenyl)piperazin-1-yl)ethylmercapto]-8-trifluoromethyl-1,2,4-triazolo(4,3-a)pyridine maleate], with 4.53 mg/kg; and `Fc1ccc(N2CCN(CCCSc3nnc4ccccn34)CC2)c(F)c1` [Example 43, 3-[3-(4-(2,4-Difluorophenyl)piperazin-1-yl)propylmercapto]-1,2,4-triazolo(4,3-a)pyridine], with 13.9 mg/kg.
Same read-out and setting: then `Cc1cc2ccccc2n2c(SCCN3CCN(c4cccc(C(F)(F)F)c4)CC3)nnc12` [Example 63, 1-[2-(4-(3-Trifluoromethylphenyl)piperazin-1-yl)ethylmercapto]-4-methyl-s-triazolo(4,3-a)quinoline], with 8.17 mg/kg.
The same measure, in the same setting: with `Cc1ccc2nnc(SCCN3CCN(c4cccc(C(F)(F)F)c4)CC3)n2c1.Cl.Cl` [Example 31, 3-[2-(4-(3-Trifluoromethylphenyl)piperazin-1-yl)ethylmercapto]-6-methyl-1,2,4-triazolo(4,3-a)pyridine dihydrochloride] the figure was 3.6 mg/kg; with `Fc1ccc(N2CCN(CCSc3nnc4ccccn34)CC2)c(F)c1` [Example 44, 3-[2-(4-(2,4-Difluorophenyl)piperazin-1-yl)ethylmercapto]-1,2,4-triazolo(4,3-a)pyridine], 11 mg/kg.
In the case of `FC(F)(F)c1cccc(N2CCN(CCSc3nnc4ccccn34)CC2)c1.O=C(O)/C=C\C(=O)O` [Example 33, 3-[2-(4-(3-Trifluoromethylphenyl)piperazin-1-yl)ethylmercapto]-1,2,4-triazolo(4,3-a)pyridine maleate], the ED50 is 1.71 mg/kg.
On the same count and under the same terms, with `Fc1ccc(N2CCN(CCSc3nnc4c(C(F)(F)F)cccn34)CC2)c(F)c1` [Example 28, 3-[2-(4-(2,4-Difluorophenyl)piperazin-1-yl)ethylmercapto]-8-trifluoromethyl-1,2,4-triazolo(4,3-a)pyridine] the figure was 22.4 mg/kg.
The same measure, in the same setting: then `Cc1cc2ccccc2n2c(SCCCN3CCN(c4ccc(F)cc4F)CC3)nnc12` [Example 66, 1-[3-(4-(2,4-Difluorophenyl)piperazin-1-yl)propylmercapto]-4-methyl-s-triazolo(4,3-a)quinoline], with 17.9 mg/kg.
The same measure, in the same setting: then `FC(F)(F)c1cccc(N2CCN(CCCSc3nnc4ccc5ccccc5n34)CC2)c1` [Example 57, 1-[3-(4-(3-Trifluoromethylphenyl)piperazin1-yl)propylmercapto]-s-triazolo(4,3-a)quinoline], with 8.56 mg/kg; and `Cl.Cl.Fc1ccccc1N1CCN(CCSc2nnc3ccccn23)CC1` [Example 41, 3-[2-(4-(2-Fluorophenyl)piperazin-1-yl)ethylmercapto]-1,2,4-triazolo(4,3-a)pyridine dihydrochloride], with 3.19 mg/kg; and `Cc1cc2nnc(SCCN3CCN(c4ccc(F)cc4F)CC3)n2c2ccccc12` [Example 62, 1-[2-(4-(2,4-Difluorophenyl)piperazin-1-yl)ethylmercapto]-5-methyl-s-triazolo(4,3-a)quinoline], with 11 mg/kg.

For the origin of these results see US4886805A, “Novel aminoalkylthio derivatives of triazolopyridine or triazoloquinoline, the processes for their preparation, and drugs, useful especially as analgesics, in which they are present” (Centre D'Activite Et De Recherches Pharmaceutique …, priority 1986, dated 1989).
